Assay results: patent publication US10526389B2, “Peptides and combinations of peptides for use in immunotherapy against lung cancer, including NSCLC and other cancers” (Immatics Biotechnologies GmbH, priority 2015, dated 2020)

Key:
CD8+ T cells [1] = assay: In vitro immunogenicity of HLA-A*24 peptides (CD8+ T-cell priming with aAPCs, multimer staining); type: cell-based, human
Description: (§1) In order to obtain information regarding the immunogenicity of the TUMAPs of the present invention, the inventors performed investigations using an in vitro T-cell priming assay based on repeated stimulations of CD8+ T cells with artificial antigen presenting cells (aAPCs) loaded with peptide/MHC complexes and anti-CD28 antibody.
(§2) Generation of pMHC/anti-CD28 coated beads, T-cell stimulations and readout was performed in a highly defined in vitro system using four different pMHC molecules per stimulation condition and 8 different pMHC molecules per readout condition.
(§3) The purified co-stimulatory mouse IgG2a anti human CD28 Ab 9.3 (Jung et al., 1987) was chemically biotinylated using Sulfo-N-hydroxysuccinimidobiotin as recommended by the manufacturer (Perbio, Bonn, Germany). Beads used were 5.6 μm diameter streptavidin coated polystyrene particles (Bangs Laboratories, Illinois, USA).
(§4) 800.000 beads/200 μl were coated in 96-well plates in the presence of 4×12.5 ng different biotin-pMHC, washed and 600 ng biotin anti-CD28 were added subsequently in a volume of 200 μl. Stimulations were initiated in 96-well plates by co-incubating 1×10^6 CD8+ T cells with 2×10^5 washed coated beads in 200 μl TCM supplemented with 5 ng/ml IL-12 (PromoCell) for 3 days at 37° C. Half of the medium was then exchanged by fresh TCM supplemented with 80 U/ml IL-2 and incubating was continued for 4 days at 37° C. This stimulation cycle was performed for a total of three times. For the pMHC multimer readout using 8 different pMHC molecules per condition, a two-dimensional combinatorial coding approach was used as previously described (Andersen et al., 2012) with minor modifications encompassing coupling to 5 different fluorochromes. Finally, multimeric analyses were performed by staining the cells with Live/dead near IR dye (Invitrogen, Karlsruhe, Germany), CD8-FITC antibody clone SK1 (BD, Heidelberg, Germany) and fluorescent pMHC multimers. For analysis, a BD LSRII SORP cytometer equipped with appropriate lasers and filters was used. Peptide specific cells were calculated as percentage of total CD8+ cells. Evaluation of multimeric analysis was done using the FlowJo software (Tree Star, Oregon, USA). In vitro priming of specific multimer+CD8+ lymphocytes was detected by comparing to negative control stimulations.
Exemplary flow cytometry results after TUMAP-specific multimer staining for 3 peptides of the invention are shown in FIGS. 3A-3E together with corresponding negative controls.

CD8+ T cells [2] = assay: In vitro immunogenicity of HLA-A*02 peptides (CD8+ T-cell priming with aAPCs, multimer staining); type: cell-based, human
Excerpt: as §1
In order to perform in vitro stimulations by artificial antigen presenting cells loaded with peptide-MHC complex (pMHC) and anti-CD28 antibody, the inventors first isolated CD8+ T cells from fresh HLA-A*02 leukapheresis products via positive selection using CD8 microbeads (Miltenyi Biotec, Bergisch-Gladbach, Germany) of healthy donors obtained from the University clinics Mannheim, Germany, after informed consent.
PBMCs and isolated CD8+ lymphocytes were incubated in T-cell medium (TCM) until use consisting of RPMI-Glutamax (Invitrogen, Karlsruhe, Germany) supplemented with 10% heat inactivated human AB serum (PAN-Biotech, Aidenbach, Germany), 100 U/ml Penicillin/100 μg/ml Streptomycin (Cambrex, Cologne, Germany), 1 mM sodium pyruvate (CC Pro, Oberdorla, Germany), 20 μg/ml Gentamycin (Cambrex). 2.5 ng/ml IL-7 (PromoCell, Heidelberg, Germany) and 10 U/ml IL-2 (Novartis Pharma, Nurnberg, Germany) were also added to the TCM at this step.
as §2, §3, §4

Substance | in vitro immunogenicity: donors (CD8+ T cells [1]) | in vitro immunogenicity: wells (CD8+ T cells [1]) | in vitro immunogenicity: donors (CD8+ T cells [2]) | in vitro immunogenicity: wells (CD8+ T cells [2])
RBPJ-001 (RYLHVEGGNF; listed as Homo sapiens) | ++ (20%-49% = ++) | + (<20% = +) | – | –
KDM6B-001 (RYGGSFAEL; listed as Homo sapiens) | ++ (20%-49% = ++) | + (<20% = +) | – | –
KYLEKYYNL (listed as Homo sapiens) [SEQ ID No. 30] | ++++ (>= 70% = ++++) | ++ (20%-49% = ++) | – | –
IQGAP1-001 (TYAALNSKATF; listed as Homo sapiens) | + (<20% = +) | + (<20% = +) | – | –
AIFM2-001 (AYKPGALTF; listed as Homo sapiens) | ++ (20%-49% = ++) | + (<20% = +) | – | –
TUBGCP3-001 (FYQGIVQQF; listed as Homo sapiens) | ++ (20%-49% = ++) | + (<20% = +) | – | –
SMPDL3B-001 (IYNQIAELW; listed as Homo sapiens) | ++++ (>= 70% = ++++) | ++ (20%-49% = ++) | – | –
LYQILQGIVF (listed as Homo sapiens) [SEQ ID No. 161] | ++++ (>= 70% = ++++) | + (<20% = +) | – | –
TYNPEIYVI (listed as Homo sapiens) [SEQ ID No. 35] | ++++ (>= 70% = ++++) | ++ (20%-49% = ++) | – | –
RASA2-001 (YYVDKLFNTI; listed as Homo sapiens) | ++ (20%-49% = ++) | + (<20% = +) | – | –
ZBED5-001 (AYKDKDISFF; listed as Homo sapiens) | ++++ (>= 70% = ++++) | + (<20% = +) | – | –
VYTSWQIPQKF (listed as Homo sapiens) [SEQ ID No. 23] | + (<20% = +) | + (<20% = +) | – | –
PSMA4-001 (LYIGWDKHYGF; listed as Homo sapiens) | ++++ (>= 70% = ++++) | + (<20% = +) | – | –
DYR-001 (VYTZIQSRF; listed as Homo sapiens) | ++ (20%-49% = ++) | + (<20% = +) | – | –
VFMKDGFFYF (listed as Homo sapiens) [SEQ ID No. 34] | ++ (20%-49% = ++) | + (<20% = +) | – | –
KLRD-001 (QYLFPSFETF; listed as Homo sapiens) | ++++ (>= 70% = ++++) | + (<20% = +) | – | –
RYISPDQLADL (listed as Homo sapiens) [SEQ ID No. 47] | +++ (50%-69% = +++) | + (<20% = +) | – | –
COL6A3-001 (SYLQAANAL; listed as Homo sapiens) | ++ (20%-49% = ++) | + (<20% = +) | – | –
RYLEKFYGL (listed as Homo sapiens) [SEQ ID No. 26] | ++++ (>= 70% = ++++) | + (<20% = +) | – | –
MUC16-001 (TYSEKTTLF; listed as Homo sapiens) | ++ (20%-49% = ++) | + (<20% = +) | – | –
SP14-001 (AYPDLNEIYRSF; listed as Homo sapiens) | + (<20% = +) | + (<20% = +) | – | –
OLFML2B-001 (YYGNTLVEF; listed as Homo sapiens) | ++++ (>= 70% = ++++) | ++ (20%-49% = ++) | – | –

Substance | in vitro immunogenicity: donors (CD8+ T cells [1]) | in vitro immunogenicity: wells (CD8+ T cells [1]) | in vitro immunogenicity: donors (CD8+ T cells [2]) | in vitro immunogenicity: wells (CD8+ T cells [2])
XPR-001 (VYPLALYGF; listed as Homo sapiens) | ++++ (>= 70% = ++++) | ++ (20%-49% = ++) | – | –
RFMDGHITF (listed as Homo sapiens) [SEQ ID No. 25] | ++ (20%-49% = ++) | + (<20% = +) | – | –
LAPTM5-001 (SYMEVPTYLNF; listed as Homo sapiens) | ++ (20%-49% = ++) | + (<20% = +) | – | –
YYTKGFALLNF (listed as Homo sapiens) [SEQ ID No. 29] | +++ (50%-69% = +++) | + (<20% = +) | – | –
FKBP10-002 (TYIGQGYII; listed as Homo sapiens) | ++++ (>= 70% = ++++) | + (<20% = +) | – | –
ABCA13-003 (EYLPEFLHTF; listed as Homo sapiens) | ++ (20%-49% = ++) | + (<20% = +) | – | –
COL12A1-003 (SYSIGIANF; listed as Homo sapiens) | ++++ (>= 70% = ++++) | + (<20% = +) | – | –
C6orf132-001 (RYGSPINTF; listed as Homo sapiens) | +++ (50%-69% = +++) | + (<20% = +) | – | –
DCSTA-001 (KYIEAIQWI; listed as Homo sapiens) | ++++ (>= 70% = ++++) | ++ (20%-49% = ++) | – | –
TRIM11-001 (IFLDYEAGHLSF; listed as Homo sapiens) | + (<20% = +) | + (<20% = +) | – | –
DDX5-007 (NYTNGSFGSNF; listed as Homo sapiens) | + (<20% = +) | + (<20% = +) | – | –
TLFPVRLLV (listed as Homo sapiens) [SEQ ID No. 97] | – | – | ++++ (>= 70% = ++++) | +++ (50%-69% = +++)
PLT-001 (ALFGALFLA; listed as Homo sapiens) | – | – | ++ (20%-49% = ++) | + (<20% = +)
COG4-001 (SLVAVELEKV) | – | – | ++++ (>= 70% = ++++) | + (<20% = +)
ABCA13-001 (ILFEINPKL) | – | – | ++++ (>= 70% = ++++) | + (<20% = +)
KIF26B-001 (TVAEVIQSV; listed as Homo sapiens) | – | – | + (<20% = +) | + (<20% = +)
PRPF3-001 (AMGIAPPKV; listed as Homo sapiens) | – | – | ++++ (>= 70% = ++++) | ++++ (>= 70% = ++++)
KILEDVVGV (listed as Homo sapiens) [SEQ ID No. 130] | – | – | ++++ (>= 70% = ++++) | ++ (20%-49% = ++)
KIFDEILVNA (listed as Homo sapiens) [SEQ ID No. 144] | – | – | ++ (20%-49% = ++) | + (<20% = +)
GFPT2-001 (AIDGNNHEV) | – | – | ++++ (>= 70% = ++++) | +++ (50%-69% = +++)
COL6A3-007 (FLYDVVKSL; listed as Homo sapiens) | – | – | ++++ (>= 70% = ++++) | + (<20% = +)
TACC3-001 (KLVEFDFLGA; listed as Homo sapiens) | – | – | +++ (50%-69% = +++) | + (<20% = +)
